Laboratory results published in the NIST ThermoML archive (doi:10.1016/j.fluid.2005.02.009).
Numbers after ± are expanded uncertainties.

Conditions: Liquid

In the case of `COCCO` [2-methoxyethan-1-ol], the viscosity (293.15 K, 100 kPa) is reported as 1.707 ± 0.04 mPa·s, the viscosity (293.15 K, 20000 kPa) is reported as 1.948 ± 0.096 mPa·s and the viscosity (293.15 K, 40000 kPa) is reported as 2.186 ± 0.11 mPa·s. The viscosity (293.15 K, 60000 kPa) was 2.426 ± 0.12 mPa·s, the viscosity (293.15 K, 80000 kPa) was 2.659 ± 0.13 mPa·s and the viscosity (293.15 K, 100000 kPa) was 2.878 ± 0.14 mPa·s. For the same compound, the viscosity (303.15 K, 100 kPa) was 1.398 ± 0.033 mPa·s, the viscosity (303.15 K, 20000 kPa) was 1.583 ± 0.078 mPa·s and the viscosity (303.15 K, 40000 kPa) was 1.777 ± 0.088 mPa·s. It also gave a viscosity (303.15 K, 60000 kPa) of 1.977 ± 0.098 mPa·s, a viscosity (303.15 K, 80000 kPa) of 2.176 ± 0.11 mPa·s and a viscosity (303.15 K, 100000 kPa) of 2.367 ± 0.12 mPa·s. For the same compound, the viscosity (313.15 K, 100 kPa) was 1.162 ± 0.027 mPa·s, the viscosity (313.15 K, 20000 kPa) was 1.339 ± 0.066 mPa·s and the viscosity (313.15 K, 40000 kPa) was 1.489 ± 0.073 mPa·s. It also gave a viscosity (313.15 K, 60000 kPa) of 1.647 ± 0.081 mPa·s, a viscosity (313.15 K, 80000 kPa) of 1.814 ± 0.089 mPa·s and a viscosity (313.15 K, 100000 kPa) of 1.988 ± 0.098 mPa·s. For the same compound, the viscosity (323.15 K, 100 kPa) was 0.984 ± 0.023 mPa·s, the viscosity (323.15 K, 20000 kPa) was 1.135 ± 0.056 mPa·s and the viscosity (323.15 K, 40000 kPa) was 1.268 ± 0.063 mPa·s. For the same compound, the viscosity (323.15 K, 60000 kPa) was 1.405 ± 0.069 mPa·s, the viscosity (323.15 K, 80000 kPa) was 1.544 ± 0.076 mPa·s and the viscosity (323.15 K, 100000 kPa) was 1.685 ± 0.083 mPa·s. The viscosity (333.15 K, 100 kPa) was 0.843 ± 0.02 mPa·s, the viscosity (333.15 K, 20000 kPa) was 0.965 ± 0.048 mPa·s and the viscosity (333.15 K, 40000 kPa) was 1.084 ± 0.053 mPa·s. It also gave a viscosity (333.15 K, 60000 kPa) of 1.21 ± 0.06 mPa·s, a viscosity (333.15 K, 80000 kPa) of 1.338 ± 0.066 mPa·s and a viscosity (333.15 K, 100000 kPa) of 1.466 ± 0.072 mPa·s. The viscosity (343.15 K, 100 kPa) was 0.731 ± 0.017 mPa·s, the viscosity (343.15 K, 20000 kPa) was 0.852 ± 0.042 mPa·s and the viscosity (343.15 K, 40000 kPa) was 0.958 ± 0.047 mPa·s. It also gave a viscosity (343.15 K, 60000 kPa) of 1.058 ± 0.052 mPa·s, a viscosity (343.15 K, 80000 kPa) of 1.149 ± 0.057 mPa·s and a viscosity (343.15 K, 100000 kPa) of 1.231 ± 0.061 mPa·s. For the same compound, the viscosity (353.15 K, 100 kPa) was 0.635 ± 0.015 mPa·s, the viscosity (353.15 K, 20000 kPa) was 0.738 ± 0.036 mPa·s and the viscosity (353.15 K, 40000 kPa) was 0.834 ± 0.041 mPa·s. It also gave a viscosity (353.15 K, 60000 kPa) of 0.924 ± 0.046 mPa·s, a viscosity (353.15 K, 80000 kPa) of 1.006 ± 0.05 mPa·s and a viscosity (353.15 K, 100000 kPa) of 1.08 ± 0.053 mPa·s.
Compound `CCOCCO` [2-ethoxyethan-1-ol] has a viscosity (293.15 K, 100 kPa) of 2.073 ± 0.049 mPa·s, a viscosity (293.15 K, 20000 kPa) of 2.417 ± 0.12 mPa·s and a viscosity (293.15 K, 40000 kPa) of 2.776 ± 0.14 mPa·s. It also gave a viscosity (293.15 K, 60000 kPa) of 3.145 ± 0.16 mPa·s, a viscosity (293.15 K, 80000 kPa) of 3.509 ± 0.17 mPa·s and a viscosity (293.15 K, 100000 kPa) of 3.859 ± 0.19 mPa·s. The viscosity (303.15 K, 100 kPa) was 1.663 ± 0.039 mPa·s, the viscosity (303.15 K, 20000 kPa) was 1.922 ± 0.095 mPa·s and the viscosity (303.15 K, 40000 kPa) was 2.21 ± 0.11 mPa·s. For the same compound, the viscosity (303.15 K, 60000 kPa) was 2.512 ± 0.12 mPa·s, the viscosity (303.15 K, 80000 kPa) was 2.816 ± 0.14 mPa·s and the viscosity (303.15 K, 100000 kPa) was 3.115 ± 0.15 mPa·s. For the same compound, the viscosity (313.15 K, 100 kPa) was 1.346 ± 0.032 mPa·s, the viscosity (313.15 K, 20000 kPa) was 1.599 ± 0.079 mPa·s and the viscosity (313.15 K, 40000 kPa) was 1.834 ± 0.091 mPa·s. It also gave a viscosity (313.15 K, 60000 kPa) of 2.071 ± 0.1 mPa·s, a viscosity (313.15 K, 80000 kPa) of 2.308 ± 0.11 mPa·s and a viscosity (313.15 K, 100000 kPa) of 2.543 ± 0.13 mPa·s. It also gave a viscosity (323.15 K, 100 kPa) of 1.117 ± 0.026 mPa·s, a viscosity (323.15 K, 20000 kPa) of 1.32 ± 0.065 mPa·s and a viscosity (323.15 K, 40000 kPa) of 1.529 ± 0.076 mPa·s. For the same compound, the viscosity (323.15 K, 60000 kPa) was 1.743 ± 0.086 mPa·s, the viscosity (323.15 K, 80000 kPa) was 1.931 ± 0.096 mPa·s and the viscosity (323.15 K, 100000 kPa) was 2.13 ± 0.11 mPa·s. It also gave a viscosity (333.15 K, 100 kPa) of 0.941 ± 0.022 mPa·s, a viscosity (333.15 K, 20000 kPa) of 1.081 ± 0.054 mPa·s and a viscosity (333.15 K, 40000 kPa) of 1.236 ± 0.061 mPa·s. The viscosity (333.15 K, 60000 kPa) was 1.408 ± 0.07 mPa·s, the viscosity (333.15 K, 80000 kPa) was 1.592 ± 0.079 mPa·s and the viscosity (333.15 K, 100000 kPa) was 1.787 ± 0.088 mPa·s. The viscosity (343.15 K, 100 kPa) was 0.804 ± 0.019 mPa·s, the viscosity (343.15 K, 20000 kPa) was 0.939 ± 0.046 mPa·s and the viscosity (343.15 K, 40000 kPa) was 1.078 ± 0.053 mPa·s. The viscosity (343.15 K, 60000 kPa) was 1.221 ± 0.06 mPa·s, the viscosity (343.15 K, 80000 kPa) was 1.362 ± 0.067 mPa·s and the viscosity (343.15 K, 100000 kPa) was 1.5 ± 0.074 mPa·s. The viscosity (353.15 K, 100 kPa) was 0.695 ± 0.017 mPa·s, the viscosity (353.15 K, 20000 kPa) was 0.829 ± 0.041 mPa·s and the viscosity (353.15 K, 40000 kPa) was 0.953 ± 0.047 mPa·s. It also gave a viscosity (353.15 K, 60000 kPa) of 1.068 ± 0.053 mPa·s, a viscosity (353.15 K, 80000 kPa) of 1.172 ± 0.058 mPa·s and a viscosity (353.15 K, 100000 kPa) of 1.265 ± 0.063 mPa·s.
With `CC(C)OCCO` [2-isopropoxyethanol] the viscosity (293.15 K, 100 kPa) was 2.38 ± 0.056 mPa·s, the viscosity (293.15 K, 20000 kPa) was 2.939 ± 0.14 mPa·s and the viscosity (293.15 K, 40000 kPa) was 3.493 ± 0.17 mPa·s. It also gave a viscosity (293.15 K, 60000 kPa) of 4.073 ± 0.2 mPa·s, a viscosity (293.15 K, 80000 kPa) of 4.661 ± 0.23 mPa·s and a viscosity (293.15 K, 100000 kPa) of 5.241 ± 0.26 mPa·s. It also gave a viscosity (303.15 K, 100 kPa) of 1.87 ± 0.044 mPa·s, a viscosity (303.15 K, 20000 kPa) of 2.284 ± 0.11 mPa·s and a viscosity (303.15 K, 40000 kPa) of 2.691 ± 0.13 mPa·s. The viscosity (303.15 K, 60000 kPa) was 3.123 ± 0.15 mPa·s, the viscosity (303.15 K, 80000 kPa) was 3.566 ± 0.18 mPa·s and the viscosity (303.15 K, 100000 kPa) was 4.008 ± 0.2 mPa·s. It also gave a viscosity (313.15 K, 100 kPa) of 1.506 ± 0.036 mPa·s, a viscosity (313.15 K, 20000 kPa) of 1.861 ± 0.092 mPa·s and a viscosity (313.15 K, 40000 kPa) of 2.186 ± 0.11 mPa·s. It also gave a viscosity (313.15 K, 60000 kPa) of 2.512 ± 0.12 mPa·s, a viscosity (313.15 K, 80000 kPa) of 2.838 ± 0.14 mPa·s and a viscosity (313.15 K, 100000 kPa) of 3.162 ± 0.16 mPa·s. The viscosity (323.15 K, 100 kPa) was 1.228 ± 0.029 mPa·s, the viscosity (323.15 K, 20000 kPa) was 1.485 ± 0.074 mPa·s and the viscosity (323.15 K, 40000 kPa) was 1.731 ± 0.086 mPa·s. It also gave a viscosity (323.15 K, 60000 kPa) of 2.002 ± 0.099 mPa·s, a viscosity (323.15 K, 80000 kPa) of 2.296 ± 0.11 mPa·s and a viscosity (323.15 K, 100000 kPa) of 2.611 ± 0.13 mPa·s. It also gave a viscosity (333.15 K, 100 kPa) of 1.024 ± 0.024 mPa·s, a viscosity (333.15 K, 20000 kPa) of 1.25 ± 0.062 mPa·s and a viscosity (333.15 K, 40000 kPa) of 1.48 ± 0.073 mPa·s. For the same compound, the viscosity (333.15 K, 60000 kPa) was 1.72 ± 0.085 mPa·s, the viscosity (333.15 K, 80000 kPa) was 1.966 ± 0.097 mPa·s and the viscosity (333.15 K, 100000 kPa) was 2.212 ± 0.11 mPa·s. For the same compound, the viscosity (343.15 K, 100 kPa) was 0.864 ± 0.021 mPa·s, the viscosity (343.15 K, 20000 kPa) was 1.046 ± 0.052 mPa·s and the viscosity (343.15 K, 40000 kPa) was 1.236 ± 0.061 mPa·s. For the same compound, the viscosity (343.15 K, 60000 kPa) was 1.445 ± 0.071 mPa·s, the viscosity (343.15 K, 80000 kPa) was 1.669 ± 0.083 mPa·s and the viscosity (343.15 K, 100000 kPa) was 1.903 ± 0.094 mPa·s. It also gave a viscosity (353.15 K, 100 kPa) of 0.739 ± 0.018 mPa·s, a viscosity (353.15 K, 20000 kPa) of 0.927 ± 0.046 mPa·s and a viscosity (353.15 K, 40000 kPa) of 1.09 ± 0.054 mPa·s. For the same compound, the viscosity (353.15 K, 60000 kPa) was 1.236 ± 0.061 mPa·s, the viscosity (353.15 K, 80000 kPa) was 1.368 ± 0.068 mPa·s and the viscosity (353.15 K, 100000 kPa) was 1.536 ± 0.076 mPa·s.
